Laboratory results reported in ChEMBL document CHEMBL1759853, “Imidazo[1,5-a]pyrazines: orally efficacious inhibitors of mTORC1 and mTORC2” (Bioorg Med Chem Lett, 2011).
pIC50: −log10 of the molar value. Activity calls are given as the source filed them. No cut-off for these calls is given here.

How the values were obtained:
[1] = cells; conditions: Homo sapiens, HeLa
[2] = Metabolic stability in mouse liver microsome assessed as extraction ratio; format: ADME; conditions: liver microsomes
[3] = biological target: Tyrosine-protein kinase ABL1 (Homo sapiens, UniProt P00519); experiment: Inhibition of Abl
[4] = biological target: RAF proto-oncogene serine/threonine-protein kinase (Homo sapiens, UniProt P04049); experiment: Inhibition of cRaf
[5] = biological target: Insulin receptor (Homo sapiens, UniProt P06213); experiment: Inhibition of IR
[6] = biological target: Vascular endothelial growth factor receptor 2 (Homo sapiens, UniProt P35968); experiment: Inhibition of KDR
[7] = biological target: T1, 3-phosphoinositide-dependent protein kinase 1 (Homo sapiens, UniProt O15530); experiment: Inhibition of PDK1
T1 sequence (O15530 whole entry): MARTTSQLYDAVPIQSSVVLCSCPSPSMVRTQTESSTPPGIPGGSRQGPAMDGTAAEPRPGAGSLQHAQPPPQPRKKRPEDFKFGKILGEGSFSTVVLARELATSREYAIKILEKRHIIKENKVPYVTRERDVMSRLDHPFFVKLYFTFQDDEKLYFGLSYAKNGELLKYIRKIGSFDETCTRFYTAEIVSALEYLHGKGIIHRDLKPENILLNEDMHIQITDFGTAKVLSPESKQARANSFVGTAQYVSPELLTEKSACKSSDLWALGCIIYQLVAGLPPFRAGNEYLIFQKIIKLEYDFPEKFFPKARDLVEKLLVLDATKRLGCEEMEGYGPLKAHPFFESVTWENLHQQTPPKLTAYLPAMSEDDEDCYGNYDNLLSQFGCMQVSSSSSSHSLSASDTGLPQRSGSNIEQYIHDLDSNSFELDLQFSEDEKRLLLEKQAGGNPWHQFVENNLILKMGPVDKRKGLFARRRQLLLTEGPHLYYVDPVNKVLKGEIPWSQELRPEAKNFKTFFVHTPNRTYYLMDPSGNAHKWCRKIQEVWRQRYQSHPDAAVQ

[8] = biological target: Phosphatidylinositol 4,5-bisphosphate 3-kinase catalytic subunit gamma isoform (Homo sapiens, UniProt P48736); experiment: Inhibition of PI3Kgamma
[9] = biological target: Proto-oncogene tyrosine-protein kinase Src (Homo sapiens, UniProt P12931); experiment: Inhibition of Src
[10] = Inhibition of mTORC2 dependent P4E-BP1 T37/46 phosphorylation in human MDA-MB-231 cells; format: cell-based
[11] = Inhibition of mTORC2 dependent pAkT S473 phosphorylation in human BT-20 cells; format: cell-based
[12] = system: MDA-MB-231; experiment: Antiproliferative activity against human MDA-MB-231 cells; format: functional, cell-based
[13] = Permeability of the compound by PAMPA method; format: ADME; conditions: read-out: permeability
[14] = Aqueous solubility of the compound at pH 7.4; format: physicochemical
[15] = Clearance in mouse at 5 mg/kg, iv; format: ADME, organism-based; design: dose 5 mg/kg, route intravenous; conditions: in vivo
[16] = Half life in mouse at 5 mg/kg, iv; format: ADME, organism-based; design: dose 5 mg/kg, route intravenous; conditions: in vivo
[17] = AUC (0 to infinity) in mouse at 5 mg/kg, iv; format: ADME, organism-based; design: dose 5 mg/kg, route intravenous, time infinity; conditions: plasma
[18] = Volume of distribution at steady-state in mouse at 5 mg/kg, iv; format: ADME, organism-based; design: dose 5 mg/kg, route intravenous; conditions: in vivo, read-out: Vdss
[19] = Cmax in mouse at 20 mg/kg, po; format: ADME, organism-based; design: dose 20 mg/kg, route oral; conditions: in vivo
[20] = AUC (0 to infinity) in mouse at 20 mg/kg, po; format: ADME, organism-based; design: time infinity, dose 20 mg/kg, route oral; conditions: plasma
[21] = Bioavailability in mouse at 20 mg/kg, po; format: ADME, organism-based; conditions: in vivo
[22] = Plasma protein binding in mouse; format: ADME, cell-free; conditions: read-out: PPB (converted)
[23] = system: Mus musculus; experiment: […] mouse bearing human MDA-MB-231 cells assessed as inhibition of 4E-BP1 T37/46 phosphorylation at 100 mg/kg, po after 4 hrs; format: functional, organism-based; design: dose 100 mg/kg
[24] = system: Mus musculus; experiment: […] mouse bearing human MDA-MB-231 cells assessed as inhibition of 4E-BP1 T37/46 phosphorylation at 100 mg/kg, po after 8 hrs; format: functional, organism-based; design: dose 100 mg/kg
[25] = system: MDA-MB-231; experiment: Antitumor activity against human MDA-MB-231 cells xenografted in CD-1 mouse at 100 mg/kg, po QD for 14 days; format: functional
[26] = system: Mus musculus; experiment: Toxicity in CD-1 mouse xenografted with human MDA-MB-231 cells assessed as reduction in body weight at 100 mg/kg, po QD for 14 days; format: organism-based; design: dose 100 mg/kg, route oral; conditions: in vivo, 336 h
[27] = biological target: T2, Insulin-like growth factor 1 receptor (Homo sapiens, UniProt P08069); experiment: Inhibition of IGF-1R
[28] = biological target: Dual specificity mitogen-activated protein kinase kinase 1 (Homo sapiens, UniProt Q02750); experiment: Inhibition of MEK1
[29] = biological target: Epidermal growth factor receptor (Homo sapiens, UniProt P00533)
[30] = in vitro; conditions: human, liver microsomes
Description: Metabolic stability in human liver microsome assessed as extraction ratio

[31] = system: MDA-MB-231; experiment: Inhibition of mTORC2 dependent P4E-BP1 T37/46 phosphorylation in human MDA-MB-231 cells at 20 uM; format: cell-based
[32] = system: BT-20; experiment: Inhibition of mTORC2 dependent pAkT S473 phosphorylation in human BT-20 cells at 20 uM; format: cell-based
[33] = biological target: T2, Insulin-like growth factor 1 receptor; experiment: Inhibition of IGF-1R by ELISA

T2 sequence (P08069 31-736 limits assumed): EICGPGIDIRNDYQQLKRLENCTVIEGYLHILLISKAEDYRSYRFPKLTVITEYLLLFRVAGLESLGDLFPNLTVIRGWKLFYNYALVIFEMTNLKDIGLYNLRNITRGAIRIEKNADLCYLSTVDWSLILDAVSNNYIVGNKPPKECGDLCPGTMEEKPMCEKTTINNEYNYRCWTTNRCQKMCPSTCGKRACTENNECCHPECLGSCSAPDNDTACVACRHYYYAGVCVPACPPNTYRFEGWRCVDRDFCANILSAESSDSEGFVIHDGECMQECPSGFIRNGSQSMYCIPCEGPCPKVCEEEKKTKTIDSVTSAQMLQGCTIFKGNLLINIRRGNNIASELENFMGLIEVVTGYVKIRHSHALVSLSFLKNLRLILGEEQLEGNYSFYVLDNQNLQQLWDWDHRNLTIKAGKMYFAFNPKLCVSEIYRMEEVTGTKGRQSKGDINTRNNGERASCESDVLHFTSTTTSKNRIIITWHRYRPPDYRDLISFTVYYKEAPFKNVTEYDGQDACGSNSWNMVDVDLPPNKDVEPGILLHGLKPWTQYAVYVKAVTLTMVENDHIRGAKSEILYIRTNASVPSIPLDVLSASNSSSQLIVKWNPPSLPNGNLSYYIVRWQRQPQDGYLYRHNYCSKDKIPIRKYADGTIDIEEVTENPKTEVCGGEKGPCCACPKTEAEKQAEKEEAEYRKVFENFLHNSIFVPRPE
T2 sequence (P08069 741-1367 limits assumed): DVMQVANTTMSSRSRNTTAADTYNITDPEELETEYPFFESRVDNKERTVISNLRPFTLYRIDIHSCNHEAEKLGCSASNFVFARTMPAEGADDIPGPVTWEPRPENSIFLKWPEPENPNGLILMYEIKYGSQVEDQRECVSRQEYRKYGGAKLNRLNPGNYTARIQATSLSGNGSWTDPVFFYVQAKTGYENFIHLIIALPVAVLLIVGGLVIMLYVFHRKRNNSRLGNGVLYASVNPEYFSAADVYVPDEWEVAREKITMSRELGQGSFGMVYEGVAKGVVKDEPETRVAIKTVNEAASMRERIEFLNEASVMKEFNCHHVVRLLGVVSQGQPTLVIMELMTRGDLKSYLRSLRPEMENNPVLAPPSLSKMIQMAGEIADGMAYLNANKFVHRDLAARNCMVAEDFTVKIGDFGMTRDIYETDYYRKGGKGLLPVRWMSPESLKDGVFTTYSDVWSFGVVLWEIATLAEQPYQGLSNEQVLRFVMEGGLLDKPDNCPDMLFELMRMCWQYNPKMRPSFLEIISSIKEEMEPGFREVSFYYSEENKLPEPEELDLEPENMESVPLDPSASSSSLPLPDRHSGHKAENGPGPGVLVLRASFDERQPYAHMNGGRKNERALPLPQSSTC
Chain of Epidermal growth factor receptor (P00533 whole entry): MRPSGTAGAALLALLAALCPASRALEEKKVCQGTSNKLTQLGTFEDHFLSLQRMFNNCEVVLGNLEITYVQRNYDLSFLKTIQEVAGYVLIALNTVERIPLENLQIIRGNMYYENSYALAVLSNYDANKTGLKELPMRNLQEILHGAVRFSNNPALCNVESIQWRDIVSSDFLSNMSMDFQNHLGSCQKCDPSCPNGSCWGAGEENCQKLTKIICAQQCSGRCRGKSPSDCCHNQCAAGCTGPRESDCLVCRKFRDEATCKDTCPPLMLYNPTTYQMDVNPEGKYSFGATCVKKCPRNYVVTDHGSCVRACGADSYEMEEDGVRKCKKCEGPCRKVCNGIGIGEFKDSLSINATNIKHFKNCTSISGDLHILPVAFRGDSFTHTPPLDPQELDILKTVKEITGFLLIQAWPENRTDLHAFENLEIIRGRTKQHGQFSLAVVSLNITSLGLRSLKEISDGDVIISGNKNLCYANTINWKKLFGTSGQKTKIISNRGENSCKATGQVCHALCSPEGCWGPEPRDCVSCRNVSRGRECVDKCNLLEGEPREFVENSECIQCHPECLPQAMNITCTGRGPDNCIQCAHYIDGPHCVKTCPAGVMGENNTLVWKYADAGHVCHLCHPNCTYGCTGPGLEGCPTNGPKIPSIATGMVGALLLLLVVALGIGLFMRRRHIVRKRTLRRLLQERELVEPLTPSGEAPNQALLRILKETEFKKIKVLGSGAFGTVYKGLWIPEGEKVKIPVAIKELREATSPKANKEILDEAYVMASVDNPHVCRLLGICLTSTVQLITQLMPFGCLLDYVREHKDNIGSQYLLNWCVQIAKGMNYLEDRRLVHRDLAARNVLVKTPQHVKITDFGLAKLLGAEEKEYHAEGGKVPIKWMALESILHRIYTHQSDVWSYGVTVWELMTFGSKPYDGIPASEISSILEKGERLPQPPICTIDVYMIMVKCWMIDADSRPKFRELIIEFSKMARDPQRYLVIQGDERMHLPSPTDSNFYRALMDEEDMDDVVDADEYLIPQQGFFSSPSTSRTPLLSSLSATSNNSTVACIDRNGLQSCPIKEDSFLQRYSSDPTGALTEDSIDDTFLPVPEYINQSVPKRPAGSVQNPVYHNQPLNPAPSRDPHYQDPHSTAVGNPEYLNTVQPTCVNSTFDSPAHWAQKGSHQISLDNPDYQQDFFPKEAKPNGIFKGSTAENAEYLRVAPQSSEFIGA
Chain of Proto-oncogene tyrosine-protein kinase Src (P12931 2-536 limits assumed): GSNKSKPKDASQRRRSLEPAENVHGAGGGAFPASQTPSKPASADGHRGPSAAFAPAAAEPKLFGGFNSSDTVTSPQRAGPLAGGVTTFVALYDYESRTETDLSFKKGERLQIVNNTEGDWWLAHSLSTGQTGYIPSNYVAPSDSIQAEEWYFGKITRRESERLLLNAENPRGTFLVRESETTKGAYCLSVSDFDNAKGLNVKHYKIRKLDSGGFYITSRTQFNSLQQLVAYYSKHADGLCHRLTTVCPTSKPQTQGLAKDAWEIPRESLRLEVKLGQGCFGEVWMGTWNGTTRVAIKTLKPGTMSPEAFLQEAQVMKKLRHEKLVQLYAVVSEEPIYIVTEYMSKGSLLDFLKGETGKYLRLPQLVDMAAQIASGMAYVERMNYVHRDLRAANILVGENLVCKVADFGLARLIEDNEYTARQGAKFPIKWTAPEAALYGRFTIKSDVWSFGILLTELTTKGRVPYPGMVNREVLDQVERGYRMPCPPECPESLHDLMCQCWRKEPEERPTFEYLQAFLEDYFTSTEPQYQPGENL
Chain of Insulin receptor (P06213 28-758 limits assumed): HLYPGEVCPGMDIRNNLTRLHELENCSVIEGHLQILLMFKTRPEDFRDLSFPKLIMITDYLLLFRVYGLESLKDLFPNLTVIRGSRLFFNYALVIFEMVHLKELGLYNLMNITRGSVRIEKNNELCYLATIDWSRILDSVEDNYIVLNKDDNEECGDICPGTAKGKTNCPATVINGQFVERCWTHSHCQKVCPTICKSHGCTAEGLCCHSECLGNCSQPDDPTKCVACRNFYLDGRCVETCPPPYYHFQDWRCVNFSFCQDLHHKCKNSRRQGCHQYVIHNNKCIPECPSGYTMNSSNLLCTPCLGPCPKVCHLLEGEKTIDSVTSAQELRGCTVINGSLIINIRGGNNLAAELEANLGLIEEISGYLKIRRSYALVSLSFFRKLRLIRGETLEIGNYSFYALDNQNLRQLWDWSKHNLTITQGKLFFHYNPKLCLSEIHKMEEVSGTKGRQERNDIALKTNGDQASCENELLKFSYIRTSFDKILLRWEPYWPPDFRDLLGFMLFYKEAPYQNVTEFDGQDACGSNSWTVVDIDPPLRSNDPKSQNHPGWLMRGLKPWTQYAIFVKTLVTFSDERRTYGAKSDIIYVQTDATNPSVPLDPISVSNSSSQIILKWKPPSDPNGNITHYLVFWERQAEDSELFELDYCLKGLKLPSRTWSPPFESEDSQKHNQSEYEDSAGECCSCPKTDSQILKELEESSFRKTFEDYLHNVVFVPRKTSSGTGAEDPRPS
Chain of Insulin receptor (P06213 763-1382 limits assumed): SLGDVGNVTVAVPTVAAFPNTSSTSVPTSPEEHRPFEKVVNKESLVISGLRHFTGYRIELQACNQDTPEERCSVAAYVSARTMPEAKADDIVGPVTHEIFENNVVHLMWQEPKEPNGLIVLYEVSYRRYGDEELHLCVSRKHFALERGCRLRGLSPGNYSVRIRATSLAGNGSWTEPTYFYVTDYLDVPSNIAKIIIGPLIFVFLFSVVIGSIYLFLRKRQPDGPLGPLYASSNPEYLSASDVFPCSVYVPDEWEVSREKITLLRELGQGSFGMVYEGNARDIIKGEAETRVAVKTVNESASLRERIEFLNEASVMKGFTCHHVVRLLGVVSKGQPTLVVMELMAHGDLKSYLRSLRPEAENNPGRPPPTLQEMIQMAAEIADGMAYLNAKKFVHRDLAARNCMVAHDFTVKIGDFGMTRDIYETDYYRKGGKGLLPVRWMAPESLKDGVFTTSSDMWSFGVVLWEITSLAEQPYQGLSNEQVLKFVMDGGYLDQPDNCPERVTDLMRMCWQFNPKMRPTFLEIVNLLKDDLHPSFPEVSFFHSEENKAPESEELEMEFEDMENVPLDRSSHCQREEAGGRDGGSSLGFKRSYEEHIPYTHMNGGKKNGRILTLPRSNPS
Chain of Dual specificity mitogen-activated protein kinase kinase 1 (Q02750 whole entry): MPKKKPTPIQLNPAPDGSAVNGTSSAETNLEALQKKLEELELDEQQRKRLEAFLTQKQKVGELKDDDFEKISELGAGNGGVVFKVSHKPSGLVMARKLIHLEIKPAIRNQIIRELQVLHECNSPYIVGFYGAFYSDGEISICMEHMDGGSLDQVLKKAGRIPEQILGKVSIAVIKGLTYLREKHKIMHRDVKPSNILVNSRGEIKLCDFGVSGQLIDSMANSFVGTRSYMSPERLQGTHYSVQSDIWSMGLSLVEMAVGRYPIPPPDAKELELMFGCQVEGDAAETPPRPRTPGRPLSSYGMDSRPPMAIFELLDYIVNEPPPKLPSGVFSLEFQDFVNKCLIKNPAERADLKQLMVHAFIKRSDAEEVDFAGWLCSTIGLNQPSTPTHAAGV

With `Nc1nccn2c(C3CCC3)nc(-c3ccc4sccc4c3)c12` the pIC50 [1] was 5.89.
Work on `Nc1nccn2c(C3CCC3)nc(-c3cc4cccnc4[nH]3)c12` yielded a pIC50 [1] of 6.40.
For `CN(C)C(=O)N1CCC(c2nc(-c3cc4ccccc4[nH]3)c3c(N)nccn23)CC1`, the hepatic extraction ratio [2] was 0.67, the pIC50 [3] was < 5.00 and the pIC50 [4] was 5.77. The pIC50 [5] was < 4.52, the pIC50 [6] was < 5.00 and the pIC50 [7] was < 4.52. The pIC50 [8] was < 4.52, the pIC50 [9] was 6.11 and the pIC50 [10] was 5.11. The pIC50 [11] was 5.86, the pIC50 [12] was 5.03 and the Papp [13] was > 25 ×10⁻⁶ cm/s. The solubility [14] was > 100 µM, the clearance [15] was 7 mL/min/kg and the half-life [16] was 54 min. For the same compound, the AUC(0-inf) [17] was 12100 ng·h/mL, the Vd [18] was 0.4 L/kg and the Cmax [19] was 35.9 µM. The AUC(0-inf) [20] was 49400 ng·h/mL, the bioavailability [21] was 102% and the fraction unbound [22] was 0.119. The Activity [23] was “Active”, the Activity [24] was “Active” and the Activity [25] was 94%. The Activity [26] was “Toxic”, the pIC50 [27] was < 4.52 and the pIC50 [28] was < 5.00. For the same compound, the pIC50 [29] was < 5.00, the pIC50 [1] was 6.92 and the hepatic extraction ratio [30] was 0.68.
In the case of `CS(=O)(=O)NC[C@H]1CC[C@H](c2nc(-c3cc4ccccc4[nH]3)c3c(N)nccn32)CC1`, the pIC50 [1] was 6.39.
`Nc1nccn2c(C3CCC3)nc(-c3cc4ccccc4[nH]3)c12` showed a hepatic extraction ratio [2] of 0.94, a pIC50 [1] of 6.34 and a hepatic extraction ratio [30] of 0.92.
Work on `Nc1nccn2c(C3CCC3)nc(-c3ccc4ccccc4c3)c12` yielded a pIC50 [1] of 5.87.
Compound `Nc1nccn2c(C3CCC3)nc(-c3cc4ccccc4s3)c12` has a pIC50 [1] of 6.89.
In the case of `Nc1nccn2c(C3CCC3)nc(-c3cc4ccccc4o3)c12`, the pIC50 [1] was 6.59.
`Nc1nccn2c(C3CCC3)nc(-c3ccc4cc[nH]c4c3)c12` showed a pIC50 [1] of 5.51.
For `CO[C@H]1C[C@@H]2CC[C@@H](C)[C@@](O)(O2)C(=O)C(=O)N2CCCC[C@H]2C(=O)O[C@H]([C@H](C)C[C@@H]2CC[C@@H](O)[C@H](OC)C2)CC(=O)[C@H](C)/C=C(\C)[C@@H](O)[C@@H](OC)C(=O)[C@H](C)C[C@H](C)/C=C/C=C/C=C/1C`, the inhibition [31] was 40% and the inhibition [32] was “inactive”.
Compound `Nc1nccn2c1c(-c1cc3ccccc3[nH]1)nc2[C@H]1CC[C@H](CNC=O)CC1` has a hepatic extraction ratio [2] of 0.51, a pIC50 [1] of 6.82 and a hepatic extraction ratio [30] of 0.64.
Work on `Nc1nccn2c(C3CCC3)nc(-c3ccc4ncccc4c3)c12` yielded a pIC50 [1] of 5.15.
With `Nc1nccn2c(C3CCC3)nc(-c3ccc4ccc(-c5ccccc5)nc4c3)c12` the pIC50 [1] was < 5.05.
In the case of `Nc1nccn2c(C3CCC3)nc(-c3c[nH]c4ccccc34)c12`, the pIC50 [1] was < 5.00.
For `Nc1nccn2c(C3CCC3)nc(-c3ccc4cccnc4c3)c12`, the pIC50 [33] was < 5.00 and the pIC50 [1] was 6.05.
In the case of `Nc1nccn2c1c(-c1cc3ccccc3[nH]1)nc2[C@H]1CC[C@H](CNC(=O)C2CCC2)CC1`, the hepatic extraction ratio [2] was 0.79, the pIC50 [1] was 6.77 and the hepatic extraction ratio [30] was 0.74.
